Measured values from ChEMBL document CHEMBL1123017, “Synthesis and antifertility activity of zoapatanol analogues” (1985).

Columns and labels:
Assay type in all cases: functional
Cavia porcellus [1] = test: Compound was evaluated for contragestational activity in guinea pig after intraperitoneal administration; Range is 25-50
Cavia porcellus [2] = test: Contragestational activity in guinea pig after intraperitoneal administration; Not Significant.
Cavia porcellus [3] = test: Compound was evaluated for contragestational activity in guinea pig after intraperitoneal administration; Range is 50-100
Cavia porcellus [4] = test: Compound was evaluated for contragestational activity in guinea pig after intraperitoneal administration; Range is 10-25
Cavia porcellus [5] = test: Compound was evaluated for contragestational activity in guinea pig after intraperitoneal administration

## CC(C)=CCC(=O)C(C)CCC[C@]1(C)OC[C@]2(C(=O)O)CC[C@H]1O2 (stereo partly specified)
Cavia porcellus [1]
  Contragestational activity: 25 mg/kg

## CC(CCC[C@]1(C)OC[C@]2(CC(=O)O)CC[C@H]1O2)C(=O)O (stereo partly specified)
Cavia porcellus [2]
  Contragestational activity: >100 mg/kg

## COC(=O)/C=C1\CC[C@@H](OC(C)=O)[C@](C)(CCCC(C)C(O)CC=C(C)C)OC1 (stereo partly specified)
Cavia porcellus [2]
  Contragestational activity: >100 mg/kg

## C/C(=C\C(C)(O)C(C)CCC[C@]1(C)OC/C(=C/CO)CC[C@H]1O)C(C)C (stereo partly specified)
Cavia porcellus [2]
  Contragestational activity: >100 mg/kg

## CC(=O)OC/C=C1\CCC(=O)[C@](C)(CCCC(C)C(=O)CC=C(C)C)OC1 (stereo partly specified)
Cavia porcellus [2]
  Contragestational activity: >100 mg/kg

## CC(=O)O[C@@H]1CC/C(=C\CO)CO[C@@]1(C)CCCC(C)C(=O)CC=C(C)C (stereo partly specified)
Cavia porcellus [1]
  Contragestational activity: 25 mg/kg

## CC(=O)OC/C=C1\CC[C@@H](OC(C)=O)[C@](C)(CCCC(C)C(=O)CC=C(C)C)OC1 (stereo partly specified)
Cavia porcellus [3]
  Contragestational activity: 50 mg/kg

## CC(C)=CCC(=O)C(C)CCC[C@]1(C)OC/C(=C/CO)CC[C@H]1O (stereo partly specified)
Cavia porcellus [3]
  Contragestational activity: 50 mg/kg

## CC(=O)OC/C=C1\CC[C@@H](OC(C)=O)[C@](C)(CCCC(C)C(O)CC=C(C)C)OC1 (stereo partly specified)
Cavia porcellus [3]
  Contragestational activity: 50 mg/kg

## CC(C)CCC(=O)C(C)CCC[C@]1(C)OCC(CCO)CC[C@H]1O (stereo partly specified)
Cavia porcellus [2]
  Contragestational activity: >100 mg/kg

## C=C[C@@]12CC[C@@H](O1)[C@](C)(CCCC(C)C(=O)CC=C(C)C)OC2 (stereo partly specified)
Cavia porcellus [2]
  Contragestational activity: >100 mg/kg

## CC(C)=CCC(O)C(C)CCC[C@]1(C)OC/C(=C/CO)CC[C@H]1O (stereo partly specified)
Cavia porcellus [4]
  Contragestational activity: 10 mg/kg

## CC(C)=CCC(O)C(C)CCC[C@]1(C)OC[C@]2(CCO)CC[C@H]1O2 (stereo partly specified)
Cavia porcellus [3]
  Contragestational activity: 50 mg/kg

## C/C(=C\C(=O)C(C)CCC[C@]1(C)OC[C@]2(CC(=O)O)CC[C@H]1O2)C(C)C (stereo partly specified)
Cavia porcellus [3]
  Contragestational activity: 50 mg/kg

## CC(CCC[C@]1(C)OC[C@]2(CC(=O)O)CC[C@H]1O2)C(=O)CC(C)C(C)C (stereo partly specified)
Cavia porcellus [2]
  Contragestational activity: >100 mg/kg

## CC(CCC[C@]1(C)OC[C@]2(CC(=O)O)CC[C@H]1O2)C(=O)/C=C/C(C)(C)O (stereo partly specified)
Cavia porcellus [2]
  Contragestational activity: >100 mg/kg

## C#CC(O)(CC=C(C)C)C(C)CCC[C@]1(C)OC[C@]2(CC(=O)O)CC[C@H]1O2 (stereo partly specified)
Cavia porcellus [4]
  Contragestational activity: 10 mg/kg

## CC(C)=CCC(O)C(C)CCC[C@]1(C)OC[C@]2(CC=O)CC[C@H]1O2 (stereo partly specified)
Cavia porcellus [5]
  Contragestational activity: <10 mg/kg

## CC(C)=CCC(=O)C(C)CCC[C@]1(C)OC[C@]2(CC=O)CC[C@H]1O2 (stereo partly specified)
Cavia porcellus [5]
  Contragestational activity: <10 mg/kg

## CC(C)CCC(O)C(C)CCC[C@]1(C)OC[C@]2(CC=O)CC[C@H]1O2 (stereo partly specified)
Cavia porcellus [5]
  Contragestational activity: <10 mg/kg

## CC(C)=CCC(=O)C(C)CCC[C@]1(C)OC[C@]2(CC(=O)O)CC[C@H]1O2 (stereo partly specified)
Cavia porcellus [5]
  Contragestational activity: <10 mg/kg

## CC(C)=CCC(O)C(C)CCC[C@]1(C)OC[C@]2(CC(=O)O)CC[C@H]1O2 (stereo partly specified)
Cavia porcellus [5]
  Contragestational activity: <10 mg/kg

## CC(=O)O[C@@H]1CCC(=O)CO[C@@]1(C)CCCC(C)C(=O)O (stereo partly specified)
Cavia porcellus [2]
  Contragestational activity: >100 mg/kg

## CC(C)=CCC(=O)C(C)CCC[C@]1(C)OC[C@]2(CCO)CC[C@H]1O2 (stereo partly specified)
Cavia porcellus [5]
  Contragestational activity: <10 mg/kg

## CC(C)CCC(O)C(C)CCC[C@]1(C)OC[C@]2(CCO)CC[C@H]1O2 (stereo partly specified)
Cavia porcellus [4]
  Contragestational activity: 10 mg/kg

## C/C(=C\C(=O)C(C)CCC[C@]1(C)OC[C@]2(C(=O)O)CC[C@H]1O2)C(C)C (stereo partly specified)
Cavia porcellus [2]
  Contragestational activity: >100 mg/kg

## CC(C)=CCC(C)(O)C(C)CCC[C@]1(C)OC[C@]2(CC(=O)O)CC[C@H]1O2 (stereo partly specified)
Cavia porcellus [5]
  Contragestational activity: <10 mg/kg

## C/C(=C\C(=O)C(C)CCC[C@]1(C)OC/C(=C/CO)CC[C@H]1O)C(C)C (stereo partly specified)
Cavia porcellus [2]
  Contragestational activity: >100 mg/kg

## CC(C)=CCC(O)C(C)CCC[C@]1(C)OC[C@]2(C(=O)O)CC[C@H]1O2 (stereo partly specified)
Cavia porcellus [4]
  Contragestational activity: 10 mg/kg

## CC(C)CCC(O)C(C)CCC[C@]1(C)OC[C@]2(CC(=O)O)CC[C@H]1O2 (stereo partly specified)
Cavia porcellus [5]
  Contragestational activity: <10 mg/kg

## C#CC(O)(CC=C(C)C)C(C)CCC[C@]1(C)OC/C(=C/CO)CC[C@H]1O (stereo partly specified)
Cavia porcellus [2]
  Contragestational activity: >100 mg/kg

## CC(C)=CCC(C)(O)C(C)CCC[C@]1(C)OC/C(=C/CO)CC[C@H]1O (stereo partly specified)
Cavia porcellus [4]
  Contragestational activity: 10 mg/kg

## C/C(=C\C(O)C(C)CCC[C@]1(C)OC/C(=C/CO)CC[C@H]1O)C(C)C (stereo partly specified)
Cavia porcellus [2]
  Contragestational activity: >100 mg/kg

## CC(CCC[C@]1(C)OC/C(=C/CO)CC[C@H]1O)C(=O)/C=C/C(C)(C)O (stereo partly specified)
Cavia porcellus [2]
  Contragestational activity: >100 mg/kg

## COC(=O)C[C@@]12CC[C@@H](O1)[C@](C)(CCCC(C)C(O)CC=C(C)C)OC2 (stereo partly specified)
Cavia porcellus [5]
  Contragestational activity: <10 mg/kg

## CC(=O)OC/C=C1\CC[C@@H](O)[C@](C)(CCCC(C)C(=O)CC=C(C)C)OC1 (stereo partly specified)
Cavia porcellus [3]
  Contragestational activity: 50 mg/kg

## CC(C)CCC(=O)C(C)CCC[C@]1(C)OC[C@]2(CC(=O)O)CC[C@H]1O2 (stereo partly specified)
Cavia porcellus [1]
  Contragestational activity: 25 mg/kg

## CC(=O)O[C@@H]1CC/C(=C\C=O)CO[C@@]1(C)CCCC(C)C(=O)CC=C(C)C (stereo partly specified)
Cavia porcellus [4]
  Contragestational activity: 10 mg/kg

## COC(=O)C[C@@]12CC[C@@H](O1)[C@](C)(CCCC(C)CO)OC2 (stereo partly specified)
Cavia porcellus [2]
  Contragestational activity: >100 mg/kg

## CC(CCC[C@]1(C)OC/C(=C/CO)CC[C@H]1O)C(=O)/C=C/C(C)(C)OO (stereo partly specified)
Cavia porcellus [2]
  Contragestational activity: >100 mg/kg

## CC(=O)OC/C=C1\CC[C@@H](OC(C)=O)[C@](C)(CCCC(C)C(CC=C(C)C)OC(C)=O)OC1 (stereo partly specified)
Cavia porcellus [1]
  Contragestational activity: 50 mg/kg
